Tests used:
Assay in all cases: Z'-LYTE kinase panel
Type in all cases: biochemical
ROCK2 = target: T1, ROCK2 (Homo sapiens, UniProt O75116)
T1 construct: purchased ThermoFisher (SelectScreen, Z'-LYTE)
Outline: (§1)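 Compounds were profiled across a 225-kinase standard panel. Each kinase was run in the standard Z′-LYTE assay and percentage inhibition was recorded at a compound concentration of 10 µM.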

PRKACA (PKA) = target: T2, PRKACA (PKA) (Homo sapiens, UniProt P17612)
T2 construct: purchased ThermoFisher (SelectScreen, Z'-LYTE)
Outline: as §1

STK25 (YSK1) = target: T3, STK25 (YSK1) (Homo sapiens, UniProt O00506)
T3 construct: purchased ThermoFisher (SelectScreen, Z'-LYTE)
Outline: as §1

AURKA (Aurora A) = target: T4, AURKA (Aurora A) (Homo sapiens, UniProt O14965)
T4 construct: purchased ThermoFisher (SelectScreen, Z'-LYTE)
T4 sequence (O14965 1-403): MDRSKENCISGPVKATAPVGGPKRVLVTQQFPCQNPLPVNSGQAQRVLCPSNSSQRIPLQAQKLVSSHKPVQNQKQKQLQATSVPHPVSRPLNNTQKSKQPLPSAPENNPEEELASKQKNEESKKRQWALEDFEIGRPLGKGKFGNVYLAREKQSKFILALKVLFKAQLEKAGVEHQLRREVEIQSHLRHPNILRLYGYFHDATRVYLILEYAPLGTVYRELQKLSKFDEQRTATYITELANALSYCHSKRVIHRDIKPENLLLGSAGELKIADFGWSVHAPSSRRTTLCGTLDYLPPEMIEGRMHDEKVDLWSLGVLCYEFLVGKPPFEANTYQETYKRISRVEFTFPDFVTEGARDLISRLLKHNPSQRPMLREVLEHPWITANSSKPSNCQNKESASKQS
Outline: as §1

PRKCZ (PKC zeta) = target: T5, PRKCZ (PKC zeta) (Homo sapiens, UniProt Q05513)
T5 construct: purchased ThermoFisher (SelectScreen, Z'-LYTE)
T5 sequence (Q05513 1-592): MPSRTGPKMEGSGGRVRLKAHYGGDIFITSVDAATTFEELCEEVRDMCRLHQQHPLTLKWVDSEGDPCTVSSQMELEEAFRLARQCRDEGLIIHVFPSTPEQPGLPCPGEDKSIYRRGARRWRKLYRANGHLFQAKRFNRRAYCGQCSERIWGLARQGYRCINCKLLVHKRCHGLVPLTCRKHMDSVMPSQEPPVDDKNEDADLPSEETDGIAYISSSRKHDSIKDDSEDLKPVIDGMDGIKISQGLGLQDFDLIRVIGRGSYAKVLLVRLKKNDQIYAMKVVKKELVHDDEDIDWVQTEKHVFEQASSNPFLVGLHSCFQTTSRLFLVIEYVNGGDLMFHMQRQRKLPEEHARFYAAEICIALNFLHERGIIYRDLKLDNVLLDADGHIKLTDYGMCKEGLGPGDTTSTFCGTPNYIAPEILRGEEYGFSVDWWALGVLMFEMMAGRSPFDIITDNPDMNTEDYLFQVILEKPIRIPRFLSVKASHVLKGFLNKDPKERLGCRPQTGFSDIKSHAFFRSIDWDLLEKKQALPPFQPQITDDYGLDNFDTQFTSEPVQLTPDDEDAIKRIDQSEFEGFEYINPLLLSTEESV
Outline: as §1

RPS6KA2 (RSK3) = target: T6, RPS6KA2 (RSK3) (Homo sapiens, UniProt Q15349)
T6 construct: purchased ThermoFisher (SelectScreen, Z'-LYTE)
Outline: as §1

BMX = target: T7, BMX (Homo sapiens, UniProt P51813)
T7 construct: purchased ThermoFisher (SelectScreen, Z'-LYTE)
T7 sequence (P51813 1-675): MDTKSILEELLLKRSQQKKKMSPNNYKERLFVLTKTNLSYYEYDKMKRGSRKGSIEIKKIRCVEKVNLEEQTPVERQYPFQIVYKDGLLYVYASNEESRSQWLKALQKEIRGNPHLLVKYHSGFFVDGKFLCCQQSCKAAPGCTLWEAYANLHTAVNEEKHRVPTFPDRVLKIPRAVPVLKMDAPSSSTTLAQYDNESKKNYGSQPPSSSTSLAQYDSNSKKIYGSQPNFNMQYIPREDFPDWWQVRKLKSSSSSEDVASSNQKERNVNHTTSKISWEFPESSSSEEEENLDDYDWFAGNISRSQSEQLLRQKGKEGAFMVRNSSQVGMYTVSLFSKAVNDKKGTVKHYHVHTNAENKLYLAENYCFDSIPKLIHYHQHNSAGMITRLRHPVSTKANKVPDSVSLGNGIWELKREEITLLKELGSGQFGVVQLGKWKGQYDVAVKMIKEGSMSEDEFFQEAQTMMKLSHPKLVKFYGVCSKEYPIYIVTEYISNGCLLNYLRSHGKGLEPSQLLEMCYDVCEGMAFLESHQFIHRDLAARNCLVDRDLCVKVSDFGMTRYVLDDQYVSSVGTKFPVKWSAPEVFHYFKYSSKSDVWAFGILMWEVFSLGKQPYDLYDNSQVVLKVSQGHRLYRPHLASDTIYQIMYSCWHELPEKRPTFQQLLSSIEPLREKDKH
Outline: as §1

CSNK1E (CK1 epsilon) = target: T8, CSNK1E (CK1 epsilon) (Homo sapiens, UniProt P49674)
T8 construct: purchased ThermoFisher (SelectScreen, Z'-LYTE)
Outline: as §1

MAPK14 (p38 alpha) = target: T9, MAPK14 (p38 alpha) (Homo sapiens, UniProt Q16539); conditions: 10 µM compound; ATP 100
T9 construct: purchased ThermoFisher (SelectScreen, Z'-LYTE)
Outline: as §1

MAPK11 (p38 beta) = target: T10, MAPK11 (p38 beta) (Homo sapiens, UniProt Q15759)
T10 construct: purchased ThermoFisher (SelectScreen, Z'-LYTE)
Outline: as §1

PAK1 = target: T11, PAK1 (Homo sapiens, UniProt Q13153)
T11 construct: purchased ThermoFisher (SelectScreen, Z'-LYTE)
Outline: as §1

PRKX = target: T12, PRKX (Homo sapiens, UniProt P51817)
T12 construct: purchased ThermoFisher (SelectScreen, Z'-LYTE)
T12 sequence (P51817 1-358): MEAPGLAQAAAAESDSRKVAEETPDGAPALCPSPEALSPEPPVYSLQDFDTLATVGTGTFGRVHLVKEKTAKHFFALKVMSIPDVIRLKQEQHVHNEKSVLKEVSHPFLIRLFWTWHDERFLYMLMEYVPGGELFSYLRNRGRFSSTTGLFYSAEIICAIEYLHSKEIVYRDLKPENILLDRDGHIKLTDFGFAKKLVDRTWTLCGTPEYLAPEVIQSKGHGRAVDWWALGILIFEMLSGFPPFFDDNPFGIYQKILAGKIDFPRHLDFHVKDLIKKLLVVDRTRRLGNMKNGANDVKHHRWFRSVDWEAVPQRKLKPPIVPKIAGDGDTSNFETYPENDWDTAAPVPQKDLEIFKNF
Outline: as §1

STK23 (MSSK1) = target: T13, STK23 (MSSK1) (Homo sapiens, UniProt Q9UPE1)
T13 construct: purchased ThermoFisher (SelectScreen, Z'-LYTE)
Outline: as §1

PIM1 = target: T14, PIM1 (Homo sapiens, UniProt P11309)
T14 construct: purchased ThermoFisher (SelectScreen, Z'-LYTE)
Outline: as §1

PLK2 = target: T15, PLK2 (Homo sapiens, UniProt Q9NYY3)
T15 construct: purchased ThermoFisher (SelectScreen, Z'-LYTE)
Outline: as §1

T8 sequence (P49674 whole entry): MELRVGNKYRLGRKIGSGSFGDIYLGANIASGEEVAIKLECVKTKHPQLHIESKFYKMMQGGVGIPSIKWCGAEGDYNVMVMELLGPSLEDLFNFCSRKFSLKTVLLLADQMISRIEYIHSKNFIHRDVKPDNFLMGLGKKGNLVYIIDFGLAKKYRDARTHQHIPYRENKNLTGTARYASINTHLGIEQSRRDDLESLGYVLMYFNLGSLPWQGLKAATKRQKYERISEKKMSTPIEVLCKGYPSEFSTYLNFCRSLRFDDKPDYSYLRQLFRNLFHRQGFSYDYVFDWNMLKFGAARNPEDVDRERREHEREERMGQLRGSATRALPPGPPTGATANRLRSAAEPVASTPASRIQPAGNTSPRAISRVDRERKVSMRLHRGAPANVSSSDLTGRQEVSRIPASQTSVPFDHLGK
T11 sequence (Q13153 whole entry): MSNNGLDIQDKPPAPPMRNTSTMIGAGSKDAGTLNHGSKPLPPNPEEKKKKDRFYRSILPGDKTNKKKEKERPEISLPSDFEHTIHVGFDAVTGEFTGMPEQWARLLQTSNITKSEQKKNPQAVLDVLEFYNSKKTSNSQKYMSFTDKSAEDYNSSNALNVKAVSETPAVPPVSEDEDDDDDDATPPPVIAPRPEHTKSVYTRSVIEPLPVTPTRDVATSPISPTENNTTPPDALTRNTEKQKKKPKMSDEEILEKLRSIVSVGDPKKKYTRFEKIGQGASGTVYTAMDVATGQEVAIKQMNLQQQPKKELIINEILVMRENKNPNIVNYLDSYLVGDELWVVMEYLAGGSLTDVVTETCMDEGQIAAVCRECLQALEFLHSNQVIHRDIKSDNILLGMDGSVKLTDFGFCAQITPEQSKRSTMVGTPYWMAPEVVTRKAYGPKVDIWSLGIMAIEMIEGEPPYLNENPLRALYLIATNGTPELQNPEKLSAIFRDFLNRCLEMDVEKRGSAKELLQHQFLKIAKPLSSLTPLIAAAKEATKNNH
T6 sequence (Q15349 whole entry): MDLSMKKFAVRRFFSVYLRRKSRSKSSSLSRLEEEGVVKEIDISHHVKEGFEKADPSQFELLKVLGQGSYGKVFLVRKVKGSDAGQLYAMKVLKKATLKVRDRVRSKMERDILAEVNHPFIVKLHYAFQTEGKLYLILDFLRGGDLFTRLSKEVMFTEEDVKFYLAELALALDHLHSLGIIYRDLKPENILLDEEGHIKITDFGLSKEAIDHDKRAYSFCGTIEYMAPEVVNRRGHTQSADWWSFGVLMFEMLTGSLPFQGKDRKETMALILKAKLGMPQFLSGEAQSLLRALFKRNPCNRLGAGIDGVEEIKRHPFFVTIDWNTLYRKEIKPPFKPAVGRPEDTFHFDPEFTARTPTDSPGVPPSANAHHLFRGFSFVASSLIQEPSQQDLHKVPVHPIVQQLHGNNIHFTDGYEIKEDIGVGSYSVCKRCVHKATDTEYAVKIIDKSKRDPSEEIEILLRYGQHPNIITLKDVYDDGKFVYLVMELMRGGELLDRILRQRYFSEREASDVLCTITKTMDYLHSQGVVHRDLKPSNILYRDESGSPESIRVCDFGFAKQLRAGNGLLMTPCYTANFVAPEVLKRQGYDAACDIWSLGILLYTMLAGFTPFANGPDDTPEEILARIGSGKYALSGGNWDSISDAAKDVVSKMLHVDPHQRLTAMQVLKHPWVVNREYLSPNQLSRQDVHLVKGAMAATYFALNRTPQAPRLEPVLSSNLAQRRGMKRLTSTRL
T9 sequence (Q16539 whole entry): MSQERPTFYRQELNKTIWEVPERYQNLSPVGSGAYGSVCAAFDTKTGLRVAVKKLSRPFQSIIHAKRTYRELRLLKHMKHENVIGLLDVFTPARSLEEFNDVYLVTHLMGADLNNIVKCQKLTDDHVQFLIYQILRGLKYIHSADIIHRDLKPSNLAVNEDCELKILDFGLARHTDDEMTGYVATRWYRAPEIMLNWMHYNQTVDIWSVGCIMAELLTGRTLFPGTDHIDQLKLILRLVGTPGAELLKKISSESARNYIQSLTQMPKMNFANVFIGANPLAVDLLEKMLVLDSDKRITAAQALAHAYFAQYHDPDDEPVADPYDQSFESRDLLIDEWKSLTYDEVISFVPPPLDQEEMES
T3 sequence (O00506 whole entry): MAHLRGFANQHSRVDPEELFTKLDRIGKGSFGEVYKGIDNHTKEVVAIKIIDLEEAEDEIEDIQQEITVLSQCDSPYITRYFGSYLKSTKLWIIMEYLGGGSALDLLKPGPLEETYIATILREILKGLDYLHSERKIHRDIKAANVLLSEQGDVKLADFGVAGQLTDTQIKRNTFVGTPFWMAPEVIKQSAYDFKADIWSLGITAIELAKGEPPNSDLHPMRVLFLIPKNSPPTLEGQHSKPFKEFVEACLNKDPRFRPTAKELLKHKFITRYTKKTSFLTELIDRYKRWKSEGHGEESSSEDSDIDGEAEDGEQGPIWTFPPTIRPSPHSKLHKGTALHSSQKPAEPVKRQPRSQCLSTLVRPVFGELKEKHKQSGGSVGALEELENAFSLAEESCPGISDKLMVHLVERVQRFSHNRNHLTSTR
T15 sequence (Q9NYY3 whole entry): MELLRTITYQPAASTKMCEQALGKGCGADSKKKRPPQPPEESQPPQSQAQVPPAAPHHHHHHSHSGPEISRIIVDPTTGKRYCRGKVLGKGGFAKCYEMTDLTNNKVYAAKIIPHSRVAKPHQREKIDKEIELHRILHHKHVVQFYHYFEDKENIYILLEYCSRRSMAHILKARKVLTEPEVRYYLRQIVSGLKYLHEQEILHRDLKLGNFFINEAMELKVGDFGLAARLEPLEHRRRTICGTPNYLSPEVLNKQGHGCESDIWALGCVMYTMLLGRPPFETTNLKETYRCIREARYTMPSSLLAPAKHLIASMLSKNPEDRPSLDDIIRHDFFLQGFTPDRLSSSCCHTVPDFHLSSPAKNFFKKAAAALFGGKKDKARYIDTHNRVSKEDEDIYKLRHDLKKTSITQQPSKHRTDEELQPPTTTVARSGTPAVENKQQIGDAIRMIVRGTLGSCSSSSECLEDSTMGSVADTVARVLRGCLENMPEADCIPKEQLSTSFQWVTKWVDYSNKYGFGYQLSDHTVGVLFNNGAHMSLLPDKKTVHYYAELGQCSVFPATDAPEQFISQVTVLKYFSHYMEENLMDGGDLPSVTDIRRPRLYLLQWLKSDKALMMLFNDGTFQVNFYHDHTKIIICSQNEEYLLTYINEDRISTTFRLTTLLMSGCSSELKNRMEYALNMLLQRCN
T1 sequence (O75116 whole entry): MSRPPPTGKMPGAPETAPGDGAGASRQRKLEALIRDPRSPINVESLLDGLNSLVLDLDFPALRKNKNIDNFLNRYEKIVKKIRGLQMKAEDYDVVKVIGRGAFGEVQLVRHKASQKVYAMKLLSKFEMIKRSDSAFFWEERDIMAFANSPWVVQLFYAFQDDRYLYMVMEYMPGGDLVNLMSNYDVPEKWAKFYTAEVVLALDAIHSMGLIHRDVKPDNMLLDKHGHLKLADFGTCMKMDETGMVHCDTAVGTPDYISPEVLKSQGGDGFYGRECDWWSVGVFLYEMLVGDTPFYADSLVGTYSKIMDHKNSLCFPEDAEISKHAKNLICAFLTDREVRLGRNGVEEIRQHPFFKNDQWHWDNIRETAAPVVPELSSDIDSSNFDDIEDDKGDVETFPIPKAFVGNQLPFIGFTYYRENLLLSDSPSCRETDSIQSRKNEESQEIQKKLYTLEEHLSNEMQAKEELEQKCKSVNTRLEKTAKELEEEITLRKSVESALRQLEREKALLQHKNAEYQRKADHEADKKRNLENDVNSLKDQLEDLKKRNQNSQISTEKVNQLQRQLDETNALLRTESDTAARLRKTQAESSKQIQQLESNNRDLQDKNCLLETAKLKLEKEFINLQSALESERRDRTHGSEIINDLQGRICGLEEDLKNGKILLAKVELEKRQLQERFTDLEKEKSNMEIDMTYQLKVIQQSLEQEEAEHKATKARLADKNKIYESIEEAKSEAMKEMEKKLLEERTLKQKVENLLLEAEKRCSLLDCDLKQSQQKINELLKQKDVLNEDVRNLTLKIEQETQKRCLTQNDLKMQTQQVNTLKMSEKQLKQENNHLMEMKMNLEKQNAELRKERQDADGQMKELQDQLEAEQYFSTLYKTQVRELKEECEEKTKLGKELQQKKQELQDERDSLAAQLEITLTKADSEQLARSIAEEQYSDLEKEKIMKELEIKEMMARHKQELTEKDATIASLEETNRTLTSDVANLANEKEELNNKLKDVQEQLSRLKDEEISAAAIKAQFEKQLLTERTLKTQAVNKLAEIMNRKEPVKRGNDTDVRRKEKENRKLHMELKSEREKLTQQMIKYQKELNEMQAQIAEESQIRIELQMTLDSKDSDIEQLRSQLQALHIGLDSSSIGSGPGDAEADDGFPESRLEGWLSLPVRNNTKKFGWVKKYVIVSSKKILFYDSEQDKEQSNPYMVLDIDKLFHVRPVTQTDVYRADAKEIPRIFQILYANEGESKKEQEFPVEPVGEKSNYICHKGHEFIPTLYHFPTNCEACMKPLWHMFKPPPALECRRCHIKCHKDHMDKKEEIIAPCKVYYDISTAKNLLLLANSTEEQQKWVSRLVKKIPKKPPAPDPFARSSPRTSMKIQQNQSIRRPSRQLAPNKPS
T14 sequence (P11309 whole entry): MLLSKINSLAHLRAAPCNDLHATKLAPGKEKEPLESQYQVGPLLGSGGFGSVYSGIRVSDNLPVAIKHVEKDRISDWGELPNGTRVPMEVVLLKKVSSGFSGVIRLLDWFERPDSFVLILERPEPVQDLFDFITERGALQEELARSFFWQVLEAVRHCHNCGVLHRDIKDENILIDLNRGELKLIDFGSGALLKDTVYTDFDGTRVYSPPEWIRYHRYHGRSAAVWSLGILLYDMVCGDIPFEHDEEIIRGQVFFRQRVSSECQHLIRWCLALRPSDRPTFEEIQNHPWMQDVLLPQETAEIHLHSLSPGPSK

Compound	inhibition at 10 µM (ROCK2)	inhibition at 10 µM (PRKACA (PKA))	inhibition at 10 µM (STK25 (YSK1))	inhibition at 10 µM (AURKA (Aurora A))	inhibition at 10 µM (PRKCZ (PKC zeta))	inhibition at 10 µM (RPS6KA2 (RSK3))	inhibition at 10 µM (BMX)	inhibition at 10 µM (CSNK1E (CK1 epsilon))	inhibition at 10 µM (MAPK14 (p38 alpha))	inhibition at 10 µM (MAPK11 (p38 beta))	inhibition at 10 µM (PAK1)	inhibition at 10 µM (PRKX)	inhibition at 10 µM (STK23 (MSSK1))	inhibition at 10 µM (PIM1)	inhibition at 10 µM (PLK2)	other results
Cc1ncc(-c2nc(Nc3ccc(C(=O)NCCN4CCCCC4)cc3)ncc2F)n1C(C)C [Compound 3]	40%	74%	72%	82%	18%	90%	68%	81%	22%	22%	51%	84%	15%	65%	48%	–
Cc1cc(Nc2nc(N)nn2C(=O)NC(C)C)ccc1Cl [Compound 5]	37%	1.5%	12%	78%	4%	70%	19%	2.61%	26%	4.21%	-12%	8.43%	-2.48%	-1.79%	63%	–
XMD8-92 [Compound 2, reference compound]	–	–	–	–	–	–	–	–	–	–	–	–	–	–	–	ROCK2 % Inhibition (ROCK2; 10 µM compound, ATP Km app): 93%; PRKACA (PKA) % Inhibition (PRKACA (PKA); 10 µM compound, ATP Km app): 56%; STK25 (YSK1) % Inhibition (STK25 (YSK1); 10 µM compound, ATP Km app): 9.49%; AURKA (Aurora A) % Inhibition (AURKA (Aurora A); 10 µM compound, ATP Km app): 85%; PRKCZ (PKC zeta) % Inhibition (PRKCZ (PKC zeta); 10 µM compound, ATP Km app): -2.33%; RPS6KA2 (RSK3) % Inhibition (RPS6KA2 (RSK3); 10 µM compound, ATP Km app): 23%; BMX % Inhibition (BMX; 10 µM compound, ATP Km app): 41%; CSNK1E (CK1 epsilon) % Inhibition (CSNK1E (CK1 epsilon); 10 µM compound, ATP Km app): 4%; MAPK14 (p38 alpha) % Inhibition (MAPK14 (p38 alpha)): 99%; MAPK11 (p38 beta) % Inhibition (MAPK11 (p38 beta); 10 µM compound, ATP Km app): 10%; PAK1 % Inhibition (PAK1; 10 µM compound, ATP Km app): 8%; PRKX % Inhibition (PRKX; 10 µM compound, ATP Km app): 25%; STK23 (MSSK1) % Inhibition (STK23 (MSSK1); 10 µM compound, ATP Km app): 15%; PIM1 % Inhibition (PIM1; 10 µM compound, ATP Km app): 35%; PLK2 % Inhibition (PLK2; 10 µM compound, ATP Km app): 12%

Reference: paper PMC4854315, “Discovery of a novel allosteric inhibitor-binding site in ERK5: comparison with the canonical kinase hinge ATP-binding site” (Acta Crystallographica. Section D, Structural Biology, 2016)
